Key:
[1] = human subject; cited from earlier work
[2] = human, in vivo
Source text: It will be further noted that according to the methods of the present invention it is possible to measure the level of metabolites that belong to different metabolic pathways. Therefore, by measuring the level of said metabolites and comparing them with each other, it is also possible to compare the activities of said different metabolic pathways. […] FIG. 3 presents the time dependence of the relative activity of two oxidation pathways of valproate, β-oxidation that leads to 3-heptanone, and ω1-oxidation that results in 2-propyl-4-pentanolactone. The activities of both oxidation pathways are presented herein as a ratio between the nAUC parameters for m/z peaks due to compounds belonging to each of the pathways, and presented in a logarithmic scale. Both increase of in 2-propyl-4-pentanolactone to 3-heptanone ratio, as well as decrease thereof can be observed over time, and observed ratios span more than 100-fold range. Herein, values of nAUC parameters for the m/z peaks due to both 3-heptanone and 2-propyl-4-pentanolactone (accordingly, peaks at m/z of 115.11176 and 143.10659 in FIG. 14) are predictors for the previously trained mathematical model of the present invention.
FIG. 3 presents the time dependence of the relative activity of two oxidation pathways of valproate, β-oxidation that leads to 3-heptanone, and […] that results in 2-propyl-4-pentanolactone. […]

[3] = Blood-based therapeutic drug monitoring of serum valproate (immunoassay total, GC-MS free); format: in vivo, human
Source text: FIG. 2 presents an analysis pipeline that includes constructing a response vector matrix, splitting the dataset into training and test set, applying feature reduction analysis to […] in order to identify predictors, training mathematical model based on selected predictors, applying selected predictors and mathematical model to the test set to determine the concentration of valproate in a subject, which matches well the serum concentration determined using the blood analysis, as determined in an immunoassay (total valproate concentration) and by GC-MS (free valproate concentration).
The range of pharmacotherapies is described in AED rows. The patients were receiving either a single drug or combinations of up to three drugs. The bottom three rows identify the clinical outcome as described by side effects (mild or severe), drug response (responder or non-responder), and EEG (normal or abnormal). The grey bars on the top show the concentrations (mg/L) of free and total serum VPA (level 0 was assigned to all the measurements of subjects' not taking VPA, missing bars in free VPA represents the unavailability of data). Dark (light) grey bars indicate that the measurements were outside (inside) the therapeutic range (i.e. 50-100 mg/L for total and 5-10 mg/L for free VPA). Thus, for example, patient 20 suffers from DEE. During the first visit (i.e. 20-1), the patient was receiving a combination of LTG, LEV, and VPA. Total serum VPA concentration was 104 mg/L (i.e. beyond the therapeutic range) and free serum VPA could not be measured. At this point in time, the patient had only mild side effects, but was not responding to the medication, and EEG was abnormal. On the second visit, the patient was unable to perform breath test. During the third visit (i.e. 20-3), LEV had been removed, total serum VPA concentration was 108 mg/L and free serum VPA concentration was 12.7 mg/L (both levels above the therapeutic range). Side effects were still mild, EEG was back to normal, but the patient was still not responding to the pharmacotherapy. AED=antiepileptic drugs, EEG=electroencephalography, VPA=valproic acid, LTG=lamotrigine, and LEV=levetiracetam.
59 subjects (32 males and 27 females) between the ages of 4 and 20 (see FIG. 12A for details), undergoing treatment with antiepileptic drugs (AEDs) with the necessity of therapeutic drug monitoring (TDM) were enrolled in the study Immediately after blood drawn for TDM, subjects performed prolonged exhalations directly into SESI-HRMS system, comprising SUPER-SESI ionization device (Fossil Ion Technology, Spain) coupled to a Q Exactive Plus HRMS (Thermo Fisher Scientific, Germany). During the course of study, wherever blood-based TDM were performed, subjects also provided exhalations, leading to multiple measurements from some subjects. In total 75 successful measurements (from 48 subjects) were performed. […] In order to determine the feasibility of TDM of an example drug valproate by using mass spectroscopy of samples of breath exhaled by subjects, the subjects were divided into two groups i.e. valproate users and non-valproate users. […] Moreover, a different relationship between total valproate serum concentration and valproate dose for subjects with mono and multi-therapy compared to that known in the literature (Duran, 1993) was observed (FIG. 12D).

[4] = patient 20, third visit (20-3), LEV removed

span of observed 2-propyl-4-pentanolactone to 3-heptanone ratios [2]: more than 100 fold | total valproate for a given dose, multi-therapy vs mono-therapy ([3]; FIG. 12D): lower than those of mono-therapy | relationship between participants' age and serum free valproate fraction ([3]; ages 4 to 20, FIG. 12C): inversely proportional relationship | total serum VPA concentration ([3]; patient 20, first visit (20-1), combination of LTG, LEV and VPA): 104 mg/L | free serum VPA concentration [3, 4]: 12.7 mg/L | total serum VPA concentration [3, 4]: 108 mg/L | relationship between serum concentrations of free and total valproate ([3]; study participants, FIG. 12B): non-linear relationship
SMILES: CCCC(CCC)C(=O)O [VPA, Valproic acid]
fraction directly excreted in urine without chemical modification [1]: Less than three percent | fraction modified with coenzyme A and shuttled to mitochondria (β-oxidation, 3-oxovalproate) [1]: 12% | fraction oxidised at position 4 (4-hydroxyvalproate) [1]: 2.7% | fraction oxidised at position 5 (5-hydroxyvalproate) [1]: 2.3% | fraction undergoing direct glucuronidation [1]: 80%
